Laboratory results published in US11059845B2, “Immune stimulating macrolides” (ISR IMMUNE SYSTEM REGULATION HOLDING AB (PUBL), priority 2017, dated 2021).

Columns and labels:
CD4+ T cells = assay: IL-1beta secretion from CD4+ T cells (cytometric bead assay); type: cell-based, human; conditions: 2 days
Protocol: FIG. 13: IL1b secretion (as measured by cytometric bead assay) from PBMC, macrophages or CD4 T cells stimulated with indicated compound for 48 h.
Study 12: PBMCs, macrophages and CD4+ T cells where exposed to compounds 1 and 2 for 2 days.

[1] = system: peripheral blood mononuclear cells (PBMC); assay: Marker expression on PBMC by flow cytometry; type: cell-based, human; conditions: 24 h
Protocol: Human peripheral blood mononuclear cells (PBMCs) were purified from healthy donors with Ficoll-Paque density centrifugation. Cells were cultured in complete RPMI-1640 media (Invitrogen) supplemented with 25 mM HEPES, L-glutamine, Sodium pyruvate (Sigma), 10% fetal bovine serum, 100 μg/mL penicillin and 100 μg/mL streptomycin (Hyclone) for 24-72 hours in 37° C., 5% CO2 and stimulated with and increasing concentrations of compound 1 and 2. Cells were then washed in PBS and stained with monoclonal antibodies specific for cell surface markers (BD Pharmingen) and analysed with flow cytomtetry using a BD FACS Canto II flow cytometer. All samples were tested in duplicates.
Human peripheral blood mononuclear cells (PBMCs) were purified from healthy donors with Ficoll-Paque density centrifugation. Cells were cultured in complete RPMI-1640 medium (Invitrogen) supplemented with 25 mM HEPES, L-glutamine, Sodium pyruvate (Sigma), 10% fetal bovine serum, 100 μg/mL penicillin and 100 μg/mL streptomycin (Hyclone). Cells were stimulated for 24 h (study 1-4) or 48 h to 1 week (study 5) in 37° C., 5% CO2 with increasing concentrations of compound 1 and 2 in tissue culture plates. The cells were removed from the plate, washed in PBS and analysed for expression of cell specific surface markers and MHC class I with flow cytometry using monoclonal antibodies from BD Pharmingen and a FACS Canto II flow cytometer.

[2] = system: E. coli, S. salivarius, L. casei, B. longum or M. luteus; assay: Direct antibacterial activity, summary over all strains tested; type: cell-based; conditions: against the bacterial strains tested (Table 1)
Protocol: (§1) The bioactivity of macrolide compounds against 4 strains of common gut bacteria (Escherichia coli, Streptococcus salivarius subsp. salivarius, Lactobacillus casei and Bifidobacterium longum subsp. infantis) and common mammalian skin isolate Micrococcus luteus, was assessed using the Minimum Inhibitory Concentration (MIC) assay. Bacterial strains were purchased from DSMZ (Brunswick, Germany) except M. luteus which was obtained from NCIMB, and stored in 20% glycerol at −80° C. Stock solutions (100% DMSO) of positive controls (azithromycin and erythromycin), and of test compounds 1 and 2 were diluted in broth to working stock concentrations of 256 μg/ml (final assay testing concentration range 128 μg/ml to 0.00391 μg/ml). Stock solutions of all other compounds were diluted in broth to working stock concentrations of 128 μg/ml (final assay testing concentration range 64 μg/ml to 0.00195 μg/ml). Bacterial strains were cultivated in appropriate broth in an anaerobic chamber at 37° C., except for M. luteus which was incubated aerobically at 37° C. 18 h cultures were diluted in broth to an OD595 of 0.1 and then further diluted 1:10. In 96-well plates, in duplicate, 200 μl working stock of test compound was transferred to well 1 and serially diluted (1:2) in broth. 100 μl bacterial suspension was aliquoted into each well and mixed thoroughly. Appropriate sterility controls were included and plates were incubated in an anaerobic chamber, or aerobically (M. luteus) at 37° C. for 18 h. The MIC was determined to be the concentration of test compound in the first well with no visible growth.

Lactobacillus casei = assay: Minimum Inhibitory Concentration (MIC) assay; type: cell-based; conditions: Lacticaseibacillus casei; anaerobic, 37° C., 18 h
Protocol: as §1

Escherichia coli = assay: Minimum Inhibitory Concentration (MIC) assay; type: cell-based; conditions: anaerobic, 37° C., 18 h
Protocol: as §1

[3] = system: Bifidobacterium longum subsp. infantis; assay: Minimum Inhibitory Concentration (MIC) assay; type: cell-based; conditions: anaerobic, 37° C., 18 h
Protocol: as §1

Micrococcus luteus = assay: Minimum Inhibitory Concentration (MIC) assay; type: cell-based; conditions: aerobic, 37° C., 18 h
Protocol: as §1

[4] = system: Streptococcus salivarius subsp. salivarius; assay: Minimum Inhibitory Concentration (MIC) assay; type: cell-based; conditions: anaerobic, 37° C., 18 h
Protocol: as §1

human TLR2 = target: T1, human TLR2 (Homo sapiens, UniProt O60603); assay: TLR2 reporter assay (HEK-293-TLR, SEAP); type: cell-based
T1 construct: host or cells: recombinant HEK-293-TLR cell lines (hTLR2, NFkB-SEAP reporter)
Protocol: Samples and controls were tested in duplicate on recombinant HEK-293-TLR cell lines using a cell reporter assay at Invivogen using their standard assay conditions. These cell lines functionally over-express human TLR2 protein as well as a reporter gene which is a secreted alkaline phosphatase (SEAP). The production of this reporter gene is driven by an NFkB inducible promoter. The TLR reporter cell lines activation results are given as optical density values (OD). 20 μl of each test article were used to stimulate the hTLR2 reporter cell lines in a 200 μl of final reaction volume. Samples were tested in duplicate, with at least two concentrations tested—20 uM and 10 uM.
Compounds were tested using a TLR2 reporter assay (see general methods) that measured for stimulation of the TLR2 receptor. Stimulatory effect was measured as an increase in optical density (OD) due to release of secreted alkaline phosphatase (SEAP) and is shown in table 4: […]

C57bl/6 mice [5] = assay: MHC class I expression on CD11b+ splenocytes of mice after i.v. injection; type: in vivo, mouse; conditions: spleen 24 h later
Protocol: FIG. 15: % MHC class I high CD11b+ cells in spleen of 3 individual C57bl/6 mice injected 24 h previously with indicated compound. MHC class I and CD11 b expression was measured by flow cytometry.
Study 14: Compound 1 or A was administered i.v. to C57bl/6 mice.

C57bl/6 mice [6] = assay: CD25 expression in blood of mice after i.v. injection; type: in vivo, mouse; conditions: highest dose of 5 mg/kg, 24 h
Protocol: FIG. 14: % CD25 high cells in blood of C57bl/6 mice injected 24 h previously with indicated dose of compound 1. CD25 expression was measured by flow cytometry.
Study 13: Compound 1 was administered i.v. to C57bl/6 mice at 0.165 mg/kg to 5 mg/kg. CD25+ cell abundance was increased in animals receiving the highest dose of 5 mg/kg (FIG. 14), as was body weight in the same group (not shown).

[7] = system: PBMCs from CMV infected donors; assay: IFN-gamma secretion from PBMCs of CMV infected donors with CMV antigen (cytometric bead assay); type: cell-based, human; conditions: 3 days
From the text: FIG. 9: Interferon-gamma secretion (as measured by cytometric bead assay) from PBMCs (from a CMV+ donor) grown with CMV peptides in the presence or absence of compound 1 or A for […].
Study 8: PBMCs from CMV infected donors cultured in the presence of CMV antigen where either untreated or exposed to compound 1 or compound 2 for 3 days.

T1 sequence (O60603 21-784): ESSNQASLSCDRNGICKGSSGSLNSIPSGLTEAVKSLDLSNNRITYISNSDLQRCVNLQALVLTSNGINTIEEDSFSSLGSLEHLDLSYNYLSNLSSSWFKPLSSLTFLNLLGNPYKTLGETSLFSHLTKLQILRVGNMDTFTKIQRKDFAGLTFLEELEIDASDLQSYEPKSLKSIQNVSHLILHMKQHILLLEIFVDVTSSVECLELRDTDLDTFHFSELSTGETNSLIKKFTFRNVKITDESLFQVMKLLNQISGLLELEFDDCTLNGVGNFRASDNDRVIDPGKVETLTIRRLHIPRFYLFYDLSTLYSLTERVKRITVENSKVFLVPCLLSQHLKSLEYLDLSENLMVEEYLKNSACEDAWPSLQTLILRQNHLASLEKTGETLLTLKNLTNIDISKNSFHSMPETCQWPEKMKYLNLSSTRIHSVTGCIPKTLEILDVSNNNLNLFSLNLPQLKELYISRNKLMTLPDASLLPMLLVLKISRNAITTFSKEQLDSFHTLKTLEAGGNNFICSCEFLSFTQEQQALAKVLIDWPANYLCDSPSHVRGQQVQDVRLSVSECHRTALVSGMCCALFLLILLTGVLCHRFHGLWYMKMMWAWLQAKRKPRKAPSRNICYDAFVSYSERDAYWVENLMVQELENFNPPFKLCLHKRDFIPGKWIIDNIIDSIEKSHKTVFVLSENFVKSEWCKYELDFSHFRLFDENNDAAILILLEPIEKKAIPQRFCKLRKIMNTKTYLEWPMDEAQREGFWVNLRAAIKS

CC[C@H]1OC(=O)[C@H](C)[C@@H](O[C@H]2C[C@@H](N(C)C)[C@H](O)[C@@H](C)O2)[C@H](C)[C@@H](O)[C@](C)(O)C[C@@H](C)CN(C)[C@H](C)[C@@H](O)[C@]1(C)O [Compound 1]
IL-1beta secretion, CD4+ T cells (CD4+ T cells): no IL-1beta was induced | activation marker CD69 on B cells ([1]; 1 μM): upregulated | activation marker CD69 on CD4+ T cells ([1]; 1 μM): upregulated | MHC class I (HLA-ABC) on B-cells [1]: upregulation | MHC class I (HLA-ABC) on T-cells [1]: upregulation | MHC class II (HLA-DR) on monocytes [1]: upregulation | co-stimulatory molecule CD80 on monocytes [1]: upregulation | antibacterial activity [2]: no antibacterial activity | MIC (Lactobacillus casei): > 64 µg/mL | MIC (Escherichia coli): > 64 µg/mL | MIC [3]: > 64 µg/mL | MIC (Micrococcus luteus): > 256 µg/mL | MIC [4]: > 64 µg/mL | OD after addition of 5 μM test article (human TLR2; 5 μM, SEAP reporter optical density): 0.111 | OD after addition of 10 μM test article (human TLR2; 10 μM, SEAP reporter optical density): 0.202 | OD after addition of 20 μM test article (human TLR2; 20 μM, SEAP reporter optical density): 0.458 | concentrations at which TLR2 was stimulated (down to) (human TLR2; lowest stimulating concentration tested): ≥ 5 µM | splenocyte cells (CD11b+) with high MHC I expression (C57bl/6 mice [5]): induced an increase | CD25+ cell abundance (C57bl/6 mice [6]): increased | IFN-gamma secretion, PBMCs with CMV antigen [7]: induced secretion of high levels of IFN-gamma
